From patent US12576051B2, “Methods and composition for treating respiratory obstructive diseases” (The Regents of the University of California, priority 2019, dated 2026)

Experiments:
[1] = tested on: secreted Muc5ac mucin; test: Mucolytic activity on secreted Muc5ac mucin of open porcine trachea sections (western blot); details: 2 mM, HCO3-Ringer with PGE2 (1 uM), 10 minutes at 37° C.; FIG. 18
Procedure: FIG. 18 provides the mucolytic activity of compounds on secreted Muc5ac mucin. Epithelial luminal surface of open porcine trachea sections (˜2 cm^2) were covered with HCO3-Ringer solution ([…]) containing PGE2 (1 uM), and alcian blue (0.02%), with or without compounds at a 2 mM final concentration, and incubated for 10 minutes at 37° C. Equal volumes of each collected sample were separated on vertical electrophoresis, and then transfer to an immobilon-P membrane for western blot analysis. […] Densitometric signal of the untreated sample, as control, was normalized to 100% (% arbitrary units).
Epithelial luminal surface of open porcine trachea sections (˜2 cm^2) were covered with […] of HCO3-Ringer solution containing PGE2 (1 uM), in the presence or absence of compounds at a 2 mM final concentration, and incubated for 5 minutes at 37° C. Afterwards, […] of sterile 7% NaCl inhaled solution was added and incubated for another 5 mins at 37° C. Equal volumes of each collected sample were separated on vertical electrophoresis, and then transferred to an immobilon-P membrane for western blot analysis. […] Densitometric signal of the non-treated sample, as control, was normalized to 100% (% arbitrary units).

[2] = tested on: porcine gastric mucin extract (50 kDa band matched to Muc5ac mucin); test: Mucolytic activity on gastric mucin (electrophoresis, Coomassie stain); type: biochemical; details: for 50 kDa protein band of gastric mucin extract: 37° C., 60 minutes, versus untreated extract, hydrochloride
Procedure: FIG. 7 presents the effects of cysteamine bitartrate and compound 646 on porcine gastric mucin extract. One hundred microliters of gastric mucin extract (5 mg/mL) was incubated with and without cysteamine bitartrate and compound 646 separately, at 37° C. for 60 minutes.
Gastric Mucin extract solution: Mucin was prepared as stock solution of 5 mg/mL in water, in NaCl Ringer (150 mM Na^+, 4.6 mM K^+, 1 mM Ca^2+, 1 mM Mg^2+, 150 mM Cl^−, 2.5 mM PO4^x− and 10 mM glucose) pH 7.2, and in HCO3-Ringer solution (150 mM Na^+, 4.6 mM K^+, 1 mM Ca^2+, 1 mM Mg^2+, […] HCO3^−, 2.5 mM PO4^x− and 10 mM glucose) pH 8.
Mucolytic activity on gastric mucin. One hundred microliters of mucin solution were incubated with Cysteamine bitartrate or compound 646 at final concentrations from 0 to 2 mM as indicated in the text. Mixture was incubated at 37° C. for 0-1 hr. Mucolytic activity was ended with 30 microliters of SDS-sample buffer solution. Forty-five microliters of each sample/well were separated in an electrophoresis gel 4-12% Tris-Glycine. After electrophoresis gels were stained with Coomassie Blue solution.
In vitro mucolytic activity of cysteamine bitartrate and compound 646. To evaluate the mucolytic activity of cysteamine bitartrate and 2-aminoethane-1-d-1-thiol hydrochloride (Compound 646), gastric mucin extract was used as a substrate that was treated with 200 and 400 μM of cysteamine bitartrate or Compound 646 respectively.
Mass spectrometry analysis of the isolated 50 kDa protein band. Muc5ac and Muc6 mucins are two major secretory mucins found in the stomach. In order identify which of these mucins were part of the 50 kDa band, mass spectrometry was utilized. Mass spectrometry analysis of the 50 kDa protein band identified 17 unique peptides that matched with porcine Muc5ac mucin.

[3] = tested on: Muc5ac mucin from porcine airway mucus; test: Mucolytic effect on Muc5ac mucin from porcine airway mucus (western blot, densitometry); type: biochemical; details: 2 mM, 30 mins at 37° C.; compound preincubated in HCO3-Ringer, HCO3-Ringer/acetic acid or acetate buffer pH 4.5
Procedure: (§1) (Upper panel) Identification of Muc5ac mucin (black arrow) by western blot, from airway mucus sample collected in HCO3-Ringer and treated with or without 2 mM of compound 646 for 30 mins at 37° C. Lane CTRL, untreated sample as control. Lane Bic, sample treated with compound preincubated in HCO3-Ringer; lane Bic/Ac, sample treated with compound preincubated with 1:1 HCO3-Ringer/Acetic acid 0.1N; lane Ac, sample treated with compound preincubated in acetate buffer 1M, pH 4.5. Lower panel, densitometric analysis of the protein bands identified with the Muc5ac mucin antibody. Densitometric signal of the sample control (CTRL) was normalized as 100% (% arbitrary units).
as §1, with “647” for “646”, “4.5, as described under Methods.” for “4.5.”, “units). Control is pH 8, Bic 7.4, Bic/AC 6.9 AND AC 6.2” for “units).”
as §1, with “655” for “646”
as §1, with “compounds 656” for “compound 646”

[4] = tested on: porcine airway; test: Ex vivo porcine airway models (summary statement)
Description: Abnormal mucus accumulation in airways has deleterious, and fatal consequence in patients suffering from respiratory obstructive diseases, such as cystic fibrosis (CF), COPD and asthma. Therefore, there is a need for therapies aimed at decreasing mucus accumulation to facilitate airway mucus clearance.

**Q.** With “2-aminoethane-1-d-1-thiol hydrochloride [Compound 646]” as the substance, how does the “native Muc5ac levels on epithelial luminal surfaces (immunoblot)” value [1] read?
**A.** decreased native Muc5ac levels

**Q.** And the “50 kDa protein band of gastric mucin extract” value ([2]; 200 μM)?
**A.** decrease in the 50 kDa protein band

**Q.** And the “50 kDa protein band of gastric mucin extract” value ([2]; 400 μM)?
**A.** decrease in the 50 kDa protein band

**Q.** What about the “anti-mucin effect against gastric mucin, Muc5ac in particular” value ([2]; summary of FIG. 7 and FIG. 8) of the same substance?
**A.** anti-mucin effect against gastric mucin

**Q.** And the “influence of acidic and basic conditions on mucolytic activity on porcine Muc5ac mucin” value [3]?
**A.** enhanced under acidic conditions

**Q.** And the “accumulation of viscous mucus and mucociliary clearance” value [4]?
**A.** prevented accumulation of viscous mucus and improves mucociliary clearance
